Measured values as given in article PMC4575030 (PLoS ONE, 2015).

Legend:
[1] = Terminal plasma and brain concentrations after behavioral testing; format: in vivo, rat
Nav1.7 = test system: Nav1.7; design: method as in PMID 21634377; settings: extrapolated; cited from earlier work
rat CFA model of pain = experiment: CFA-induced thermal hyperalgesia; format: in vivo; settings: 120 min after dosing, 24 h after CFA
Procedure: CFA-induced thermal hyperalgesia was measured using the Thermal Plantar Analgesia Instrument (Ugo Basile, Italy). Intensity of the radiant heat stimulus was adjusted to achieve a withdrawal latency of approximately 13 s in naïve animals. On test day one, animals were placed on the apparatus in their individual testing chambers with an absorbent towel at the bottom and allowed to habituate for at least 30 minutes. The towel was then removed and animals were allowed to acclimate for at least 15 minutes more. After habituation, animals were placed back in their home cages until the following day. On test day two, animals were placed back in the testing chambers until calm (typically 20 minutes). The thermal device was positioned on the center of the left hind paw and the test was started. The time for the animal to withdraw its paw from the thermal stimulus was recorded. A cut-off of 30 seconds was used to prevent tissue damage. Few trials went past 20 seconds and none past 25 seconds. This procedure was repeated for three trials per animal, each separated by at least 5 min, and trials were averaged to determine baseline withdrawal latencies. After determining baseline measures, each animal received an injection of 50 μl CFA (1:1 emulsion with PBS, Sigma, St. Louis, MO) into the plantar side of the left hind paw with a 26 gauge needle. Animals were then placed back in their home cages until the following day. Approximately 24 h after the CFA injection, withdrawal latencies to heat were determined as described above. Animals were then randomized based on their Post-CFA baseline score and treated with the test compound or vehicle. […] The experimenter was blinded to drug treatment during this assay. Percent return to baseline latency was used as the endpoint of the assay.

[2] = test system: rat formalin model of pain; experiment: Formalin test (formalin-induced flinching); format: in vivo; settings: for Decrease in formalin flinching: phase 2 (10 to 40 min), percent of vehicle
Procedure: Formalin-induced flinching was measured using the Automated Nociception Analyzer (ANA) (University Anesthesia Research & Development Group, La Jolla, CA). Rats were habituated to the ANA testing chambers for at least 30 minutes prior to the formalin injection. At test time, each rat was removed from the testing chamber and gently wrapped in a towel. 50 μL of 2.5% formalin solution was injected into the dorsal surface of the left hind paw with a 30 gauge needle. A small metal band was then affixed to the plantar side of the injected paw with one drop of super glue. The animal was then unwrapped from the towel, placed back in the testing chamber, and flinching behavior was scored for 40 minutes by the ANA software. While minimized, non-painful paw movement from the natural activity of an alert animal could be erroneously binned by the automated recording system as a nociceptive behavior. These behaviors are not subtracted from the flinching total. […] Total flinching behavior was used as the endpoint of the assay.

C-fiber nociceptors = experiment: In vivo teased-fiber recording from tibial nerve after CFA, C-fibers; design: species or system rat; settings: for Heat response threshold of C-fiber nociceptors: n = 9
Procedure: A total of 55 adult, male, Sprague–Dawley rats (Harlan, Indianapolis, IN) weighing 300–350 g were used for electrophysiology. To ensure that electrophysiology studies were performed on rats with mechanical hyperalgesia, behavioral measures of mechanical hyperalgesia were obtained before and at 24 h after administration of CFA (and just prior to the electrophysiological studies). Mechanical hyperalgesia was assessed by determining the frequency of paw withdrawal evoked by mechanical stimulation using a 26 g Semmes-Weinstein von Frey monofilament (Stoelting, Wood Dale, IL). Rats were placed on an elevated wire mesh platform under individual plastic cages and acclimated to the testing environment for 30 minutes prior to testing. The monofilament was applied to the mid-plantar surface of the hindpaw ten times for 1–2 s each with an inter-stimulus interval of approximately 5–10 s and the paw withdrawal frequency (percent) was determined. Baseline measures were determined for each rat for three consecutive days prior to injection of CFA. Mechanical hyperalgesia was defined as an increase in the paw withdrawal frequency.
Rats were initially anesthetized by intramuscular injection of ketamine (100 mg/kg) and xylazine ([…]). […] Core body temperature was maintained at 37°C using a feedback-controlled heating pad (Harvard Apparatus, Holliston, MA, USA).
Recordings were made from cutaneous afferent fibers of the left tibial nerve using a teased-fiber approach. The tibial nerve was dissected from the surrounding tissue and the overlaying skin was sewn to a metal ring to form a pool that was filled with warm mineral oil. The tibial nerve was placed onto a mirror platform for fine dissection with sharpened fine forceps (Fine Science Tools, Foster City, CA, USA). Teased fibers were placed onto a tungsten wire electrode and action potentials were recorded extracellularly. […] Only fibers with clearly discriminated single action potentials were studied. Responses of individual fibers were analyzed off-line using the Spike2 data analysis program (Cambridge Electronic Design, Cambridge, UK).
Afferent fibers were found by their ongoing spontaneous activity and by mechanically stimulating the plantar surface of the hind paw with the experimenter's finger or von Frey monofilaments. Once a single fiber was identified that was excited by mild pinching but not light touch, its mechanical receptive field was marked on the skin using a felt-tipped pen.
Conduction velocity was determined by electrically stimulating the skin outside the fiber’s receptive field with pin electrodes (200 μs pulse width at 0.5 Hz) to electrically activate the fiber. The fiber was stimulated at 1.5 times its electrical threshold and the conduction latency was measured from the time of the electrical stimulus artifact to the evoked action potential. Conduction distance was determined by measuring the distance from the fiber's receptive field to the recording electrode. Conduction velocity (m/s) was calculated by dividing conduction distance by conduction latency. Fibers were classified as Aδ-fiber nociceptors if they had conduction velocities between 2.4–25.0 m/s and as C-fiber nociceptors if conduction velocity was < 2.4 m/s.
Nociceptors were classified functionally according to their responsiveness to mechanical and heat stimulation. Mechanical stimuli used to classify units included light brushing with the tip of a cotton swab, mildly pinching with a pair of forceps, and application of von Frey filaments. Mechanical response thresholds were determined using a series of von Frey monofilaments and defined as the weight (g) required to evoke at least one action potential when applied to the receptive field for 1–2 s. Heat stimuli were delivered using a feedback-controlled Peltier device (Yale Electronics, New Haven, CT) with a contact area of 1 cm^2. […]

[3] = 30 minutes after i.v. injection
[4] = 60 minutes after i.v. injection

## CC(=O)Nc1cccc(Nc2ncnc(N3CCC(OCc4ccc(OC(F)(F)F)cc4)CC3)n2)c1C [Compound 52, N-(2-methyl-3-((4-(4-((4-(trifluoromethoxy)benzyl)oxy)-1-piperidinyl)-1,3,5-triazin-2-yl)amino)phenyl)acetamide]
[1]; brain and plasma, rat, ratio of concentrations measured following the formalin test
  Kp: 0.3
[1]; mean terminal plasma concentration at the lowest effective dose in the rat formalin test
  Effective [plasma]: 1.93 µM
Nav1.7
  Preference for inactivated versus non-inactivated Nav1.7: 100 fold
Rat CFA model of pain; 10 mg/kg p.o.
  Average reversal of thermal hyperalgesia compared to baseline: 40%
Rat CFA model of pain; 30 mg/kg p.o.
  Average reversal of thermal hyperalgesia compared to baseline: 53%
[2]; 3 mg/kg p.o.
  Decrease in formalin flinching: 9%
[2]; 10 mg/kg p.o.
  Decrease in formalin flinching: 22%
[2]; 30 mg/kg p.o.
  Decrease in formalin flinching: 79%
[2]; rat formalin model, significant (p < 0.05) decrease in flinching at a dose without a reduction in open field movement that obviated the result
  Analgesic efficacy: Yes
[2]; rat formalin test
  Reduction in formalin flinching, result in words: statistically significant and plasma concentration-dependent reduction in formalin flinching
[2]; same formulation and i.v. route as electrophysiology, data not shown
  Behavioral analgesic efficacy in the formalin model, i.v. delivery: equivalent to morphine
C-fiber nociceptors; [3]
  Mean cumulative number of action potentials evoked by all heat stimuli, C-fibers: 19.2 ± 3.6
  Mean number of action potentials evoked by a suprathreshold mechanical stimulus (250 mN), C-fibers: 19.9 ± 5.4
  Mechanical response threshold of C-fiber nociceptors: 60.4 ± 9.8 mN
  Heat response threshold of C-fiber nociceptors: 47.0 °C
C-fiber nociceptors; 30 minutes after i.v. injection, 48°C and 50°C reduced
  Number of action potentials evoked by heat stimuli, C-fibers: reduced the number of action potentials evoked by heat stimuli
C-fiber nociceptors; [4]
  Mean number of action potentials evoked by a suprathreshold mechanical stimulus (250 mN), C-fibers: 11.6 ± 3.2
  Mechanical response threshold of C-fiber nociceptors: 60.1 ±9.1 mN
C-fiber nociceptors; before injection
  Mean cumulative number of action potentials evoked by all heat stimuli, C-fibers: 39.2 ± 6.5
  Heat response threshold of C-fiber nociceptors: 45.0 °C
C-fiber nociceptors; before injection, n = 8
  Mean number of action potentials evoked by a suprathreshold mechanical stimulus (250 mN), C-fibers: 28.9 ± 6.2
C-fiber nociceptors; before injection, n = 11
  Mechanical response threshold of C-fiber nociceptors: 44.5 ± 7.5 mN
C-fiber nociceptors; i.v. 2.5 mg over 15 min, remained decreased until 26 minutes
  Time after beginning the injection at which the rate of ongoing spontaneous activity was significantly decreased: ≤ 12 min
C-fiber nociceptors; one day after CFA, after i.v. 2.5 mg (approximately 8 mg/kg)
  Spontaneous firing of C-fiber nociceptors, after compound: ~0.2 Hz
C-fiber nociceptors; one day after CFA, before i.v. injection
  Spontaneous firing of C-fiber nociceptors, before compound: approximately 0.7 Hz
